Measurements from US20240299393A1, “SMALL MOLECULE DISRUPTORS OF PROTEIN INTERACTIONS IN HISTONE DEACETYLASE COMPLEXES” (Dana-Farber Cancer Institute, Inc., priority 2021, published 2024).

Assays:
[1] = test system: Rpd3-regulated genes (URS-URA3, INO1, IME2, CAR1, SPO13, TRK2); assay: RT-qPCR of Rpd3-regulated genes in yeast; format: cell-based, S. cerevisiae; conditions: for derepression of URS-URA3 in deletion strains: rpd3Δ, sin3Δ, ume6Δ, sin3Δ/ume6Δ
Experimental: After yeast cells reached OD600 nm ˜0.5 in 0.8-1 mL of YPD, they were grown for two more hours at room temperature before being centrifuged to remove supernatant and freezing pellets on dry ice. For compound treatments, yeast cells at OD600 nm˜0.5 in YPD were incubated at room temperature for two hours with DMSO (1-1.6%) or the desired compound (from 25 mM stock in 100% DMSO) in an 2 mL-tube for a final volume of 0.8 mL in YPD, before being centrifuged, washed and frozen as described above. Yeast cells were then harvested for RNA extraction using a RiboPure RNA Purification Kit (Invitrogen, cat #AM1926), which involves mechanical cell wall disruption, phenol extraction of the lysate, and RNA purification using glass fiber, and filter-based RNA purification columns. RNA concentration was measured for individually purified RNA samples using a NanoDrop spectrophotometer. A total of 1 μg RNA from each sample was used for reverse transcription following a published procedure [Choi, S. G. et al 2012].
The RT-qPCR protocol used in this study was described elsewhere [Choi et al 2012]. Culture, RNA extraction, and compound treatments for neuroblastoma SK-N-BE(2)-C cells are described below. Approximately 1 μg RNA per sample was used for reverse transcription. Using a thermocycler, RNA was denatured in the presence of 0.2 μg 18 mer oligo-dT by heating the plate at 65° C. for 10 min. The plate was then immediately cooled down on ice to anneal oligo-dT on the poly-A tail of mRNA. A master mix of AffinityScript Multiple Temperature Reverses Transcriptase (Agilent, cat #600107) was prepared following the manufacturer's protocol, and mixed with RNA samples previously annealed with the oligo-dT. The plate was incubated at 42° C. for 2 h to generate cDNAs from mRNA templates. The reverse transcriptase was then denatured by heating the plate at 70° C. for 15 min. The resulting cDNA was diluted (1:20) in sterile, ultra pure water (ddH2O), and stored at −20° C. until used for qPCR. To measure gene expression, the diluted cDNA was mixed with 5 μL PowerUp SYBR Green master mix (Applied Biosystems, cat #A25743), and the mix of primers (forward+reverse, see FIG. 31; 0.3 μM final concentration) for a total volume of 10 μL. Two technical replicates were generated per cDNA sample in the 384-well PCR plate (Applied Biosystems, cat #4343370). The plate was tightly sealed with optical adhesive film (Applied Biosystems, cat #4311971). Quantitative PCR was conducted with a QuantStudio real-time PCR system from Applied Biosystems, with the following settings: 50° C./2 min, 95° C./10 min, 96° C./15 s/40 cycles, and 60° C./30 s. Dissociation curves were checked for each PCR product, to assess the specificity of the PCR amplicons.
Expression of gene X normalized to the control gene expression=k*1.96^(Ct^Control^−Ct^Test^) • where k is an arbitrary multiplier (k=1000 in this study), 1.96 is the PCR amplification efficiency constant, Ct is the cycle threshold, CtControl is the Ct value for the housekeeping gene used as control (UBC6 in yeast [Teste et al 2009]; RPS11 in human cells [Zhan et al 2014], and CtTest is the Ct value for the tested gene. Replicates corresponding to DMSO treatments or WT yeast cells were averaged and other data points normalized using those DMSO or WT values as references (i.e. expression relative to DMSO or WT). TAF10 in yeast or SNRPD3 in human cells were used as genes not known for being regulated by an HDAC complex (HDAC-unrelated genes).

[2] = test system: Rpd3-sensitive acid phosphatase activity; assay: Yeast acid phosphatase plate assay; format: cell-based, S. cerevisiae; conditions: phosphate-rich (high Pi) medium
Experimental: The acid phosphatase plate assay was implemented as previously described [To et al 1973, Loewith et al 2001], with minor modifications. Cells were grown on high Pi medium (see above) for 2 days, at 30° C. A staining solution containing 2 mg/mL of 1-naphtyl phosphate (Sigma, N5602) and 4 mg/mL fast blue B salt (Sigma, D9805) was then prepared in 50 mM sodium acetate buffer pH 4.0±0.1, and maintained at 50° C. for ˜30 min before being filtered. Meanwhile, a solution of 10 mg/mL (1% weight/volume) ultra pure low melting point (LMP) agarose (Invitrogen, 15517-022) was prepared in 50 mM sodium acetate buffer pH 4.0±0.1, by microwaving the suspension until complete dissolution of the powder. The volume of the agarose solution was checked and readjusted with 50 mM sodium acetate buffer pH 4.0±0.1. The agarose solution was then mixed with the filtered staining solution by vortexing briefly, and the resulting suspension was kept at 50° C. for ˜15 min. The solid agar plate on which cells grew for 2 days were then gently overlaid with the agarose-containing staining solution, allowing its gelification on top of the cells. A red coloring started to appear ˜2 min after covering cells with the solution.

Row | SMILES | increase of INO1 expression ([1]; 250 μM, relative to DMSO) | derepression of URS-URA3 in deletion strains ([1]; 250 μM) | Rpd3-sensitive acid phosphatase activity [2] | expression at URS-URA3 compared to E6S ([1]; different doses) | effect on CAR1 and SPO13 expression ([1]; 250 μM) | effect on all Rpd3-regulated loci ([1]; FIG. 3I)
1 | CC(NC(=O)c1c(O)n2ccccc2nc1=O)c1ccccc1 (racemic) [E6] | ~150 fold | drastically decreased | opposite behavior |  |  | 
2 | C[C@@H](NC(=O)c1c(O)n2ccccc2nc1=O)c1ccccc1 [E6R, 4-hydroxy-2-oxo-N—((R)-1-phenylethyl)-3,4-dihydro-2H-pyrido[, 2-a]pyrimidine-3-carboxamide] |  |  |  | stronger induction of expression at URS-URA3 |  | 
3 | CC(/C=C/C(=O)NO)=C\[C@@H](C)C(=O)c1ccc(N(C)C)cc1 [TSA, trichostatin A] |  | no effect | induced |  | consistently derepressed | activated all Rpd3-regulated loci
